Test results published in US11819476B2, “Rapamycin analogs and uses thereof” (Janssen Pharmaceutica NV, priority 2019, dated 2023).
“Also recorded” adds a separate entry of the source.

How the values were obtained:
Format in all cases: cell-based
[1] = test system: pS6K1 in MCF7; assay: AlphaLISA Ultra pS6K1 Assay; conditions: Homo sapiens, 1.5 h; MCF7 cells, 90 min incubation
Method: Example 74: AlphaLISA Ultra pS6K1 Assay
Assay Protocol: • 1. Seed MCF-7 cells in Corning 3701 plate and incubate for 20˜24 hour. 12,000˜16,000 cells will be seeded in 36 μL medium per well. • 2. Change the culture medium with fresh medium and incubate for another 2 hours. • 3. Add 12 μL (4×) compounds into the cell plate by HAMILTON. Final DMSO concentration is 0.5%. Incubate for 90 minutes. • 4. Aspirate 38 μL by HAMILTON, 10 μL rest per well. • 5. Add 10 μL 2× lysis buffer using HAMILTON; total volume in wells is 20 μL. Allow cells to shake for 30 min. Cover plate by plastic foil and store plate at −80° C. up to analysis. • 6. Thaw cell lysate at RT and transfer 10 μL lysate to assay plate (Optiplate-384). • 7. Add 5 μL acceptor beads into assay plate and incubation for 2 hours • 8. Add 5 μL donor beads and incubation for 2 hours • 9. Count the plate by EnSpire Multimode Plate Reader

[2] = test system: mTORC1 over mTORC2; assay: mTORC1 selectivity over mTORC2 at 24 hrs (pS6K1 and pAKT assays); conditions: for mTORC1 selective @ 24 hrs: selectivity for mTORC1 over mTORC2 at 24 hrs
Method: (§1) Example 76: Western Blot Based pS6K1 and pAKT Assay at 24 and 48 Hour Timepoints
(§2) Assay Protocol: • 1. Seed six well plate with 500,000 PC3 cells per well and incubate for […]. • 2. Add compounds into the cell plate. Incubate for 24 to 48 hours. • 4. Plate is placed on ice and the media is removed via aspiration. The wells are washed with 1 mL of 1×PBS and then fully aspirated. • 5. 110 μL of 1% Triton Lysis Buffer is added and each well is scraped vigorously. • 6. Cell homogenates are transferred to 1.5 mL eppendorf tubes on ice and spun down at 4° C. for 10 minutes at 10,000 rpm. • 7. Protein concentration of resulting cell lysates were quantified utilizing a Bradford assay and the samples run analyzed via Western blot on 4-12% Bis/Tris gels with 1×MES buffer. • 8. The gels were transferred onto membranes at 50V for 100 minutes, blocked with Odyssey Blocking buffer for 30 minutes then incubated overnight with primary antibody (pS6K1 T389 Rabbit or pAkt S473 Rabbit) overnight at 4° C. on a rotator. • 9. The membranes were washed 3× with TBS-T with a 5 minute incubation between each wash then incubated with secondary antibody (LiCor IRDye 800 Donkey Anti Rabbit) for at least 30 minutes. • 10. The membranes were washed 3× with TBS-T with a 5 minute incubation between each wash. • 11. The gels were then incubated for 5 minutes with PBS at room temperature then imaged using a Li-Cor.
The compound numbers correspond to the compound numbers in Table 1.
Compounds that are not selective at the 24 hrs mark are indicated by “NO” in the “mTORC1 selective @ 24 hrs” column of Table 4. Compounds that partially retain selectivity for mTORC1 inhibition over mTORC2 are indicated by “Partial” in the “mTORC1 selective @ 24 hrs” column of Table 4.

[3] = test system: pS6K1 T389 in PC3 cells (mTORC1 pathway); assay: Western blot based pS6K1 assay (mTORC1 pathway); conditions: 24 hours
Method: as §1, §2
PC3 cells were treated with everolimus (0.1 μM, 0.01 μM, and 0.001 μM) or I-9 ([…], 0.1 μM, 0.01 μM, and 0.001 μM) for 24 hours.
The methods employed were substantially similar to those described above. Compounds were evaluated in PC3 cells. Additional cell lines that may be used include Jurkat cells, wild-type mouse embryotic fibroblast (MEF) cells, tuberous sclerosis 2 (TSC2) negative (TSC−/−) MEF cells, and tuberous sclerosis 2 (TSC2) positive (TSC+/+) MEF cells. Cells are incubated with compounds of the present invention for various time periods (e.g., 5 minutes, 15 minutes, 30 minutes, 90 minutes, 24 hours, or 48 hours), and evaluated according to known methodologies, such as those herein described.

[4] = test system: pAkt S473 in PC3 cells (mTORC2); assay: Western blot based pAKT assay (mTORC2 pathway); conditions: 24 hours
Method: as §1
as §2, with “The membranes were washed 3× with TBS-T with a 5 minute incubation between each wash then incubated with secondary antibody (LiCor IRDye 800 Donkey Anti Rabbit) for at least 30 minutes. • 10. The membranes were washed 3× with TBS-T with a 5 minute incubation between each wash. • 11. The gels were then incubated for 5 minutes with PBS at room temperature then imaged using a Li-Cor.” left out
The methods employed were substantially similar to those described above. Compounds were evaluated in PC3 cells. […] Cells are incubated with compounds of the present invention for various time periods (e.g., 5 minutes, 15 minutes, 30 minutes, 90 minutes, 24 hours, or 48 hours), and evaluated according to known methodologies, such as those herein described.

| IC50 [1] | Structure (SMILES) | mTORC1 selective @ 24 hrs [2] | inhibition of the mTORC1 pathway (pS6K1, Western blot) [3] | inhibition of mTORC2 (Akt phosphorylation, pAkt, Western blot) [4] | selectivity over mTORC2 as measured by the impact of pAKT ([2]; at 24 hours, depends on size of C-7 group) |
| --- | --- | --- | --- | --- | --- |
| 1 to 10 nM | CO[C@@H]1C[C@H](C[C@@H](C)[C@@H]2CC(=O)[C@H](C)/C=C(\C)[C@@H](O)[C@@H](OC)C(=O)[C@H](C)C[C@H](C)/C=C/C=C/C=C(\C)[C@@H](OCCOc3ccccc3)C[C@@H]3CC[C@@H](C)[C@@](O)(O3)C(=O)C(=O)N3CCCC[C@H]3C(=O)O2)CC[C@H]1OCCO [Example I-7, (26E,28E,30E,31E,38R,39S,40R,41R,43S,45S,47S,48S,49R,50R,59R)-49,59-dihydroxy-48-[(1R)-2-[(1S,3R,4R)-4-(2-hydroxyethoxy)-3-methoxy-cyclohexyl]-1-methyl-ethyl]-50-methoxy-38,39,40,41,51,52-hexamethyl-47-(2-phenoxyethoxy)-69,70-dioxa-60-azatricyclohexatriaconta-26,28,30(51),31(52)-tetraene-53,54,55,56,57-pentone] | Yes | – | – | – |
| 0.1 to 1 nM | CO[C@@H]1C[C@H](C[C@@H](C)[C@@H]2CC(=O)[C@H](C)/C=C(\C)[C@@H](O)[C@@H](OC)C(=O)[C@H](C)C[C@H](C)/C=C/C=C/C=C(\C)[C@@H](OCCOC3COC3)C[C@@H]3CC[C@@H](C)[C@@](O)(O3)C(=O)C(=O)N3CCCC[C@H]3C(=O)O2)CC[C@H]1OCCO [Example I-9, (23E,25E,27E,28E,34R,35S,36R,37R,39S,41S,43S,44S,46R,47R,56R)-46,56-dihydroxy-44-[(1R)-2-[(1S,3R,4R)-4-(2-hydroxyethoxy)-3-methoxy-cyclohexyl]-1-methyl-ethyl]-47-methoxy-34,35,36,37,48,49-hexamethyl-43-[2-(oxetan-3-yloxy)ethoxy]-67,68-dioxa-57-azatricyclohexatriaconta-23,25,27(48),28(49)-tetraene-50,51,52,53,54-pentone] | Yes | reduction in pS6K1; also recorded: moderate concentration dependent inhibition | did not reduce | – |
| – | CO[C@@H]1C[C@H](C[C@@H](C)[C@@H]2CC(=O)[C@H](C)/C=C(\C)[C@@H](O)[C@@H](OC)C(=O)[C@H](C)C[C@H](C)/C=C/C=C/C=C(\C)C(OCCCCS(N)(=O)=O)C[C@@H]3CC[C@@H](C)[C@@](O)(O3)C(=O)C(=O)N3CCCC[C@H]3C(=O)O2)CC[C@H]1OCCO (some centres unmarked) [Example I-19] | – | – | – | marked selectivity |
| 0.1 to 1 nM | CO[C@@H]1C[C@H](C[C@@H](C)[C@@H]2CC(=O)[C@H](C)/C=C(\C)[C@@H](O)[C@@H](OC)C(=O)[C@H](C)C[C@H](C)/C=C/C=C/C=C(\C)[C@@H](OCCCO)C[C@@H]3CC[C@@H](C)[C@@](O)(O3)C(=O)C(=O)N3CCCC[C@H]3C(=O)O2)CC[C@H]1O [Example I-36, (21E,23E,25E,26E,31R,32S,33R,34R,36S,38S,40S,41S,42S,43R,52R)-42,52-dihydroxy-41-[(1R)-2-[(1S,3R,4R)-4-hydroxy-3-methoxy-cyclohexyl]-1-methyl-ethyl]-40-(3-hydroxypropoxy)-43-methoxy-31,32,33,34,44,45-hexamethyl-63,64-dioxa-53-azatricyclohexatriaconta-21,23,25(44),26(45)-tetraene-46,47,48,49,50-pentone] | Yes | – | – | – |
| – | CO[C@@H]1C[C@H](C[C@@H](C)[C@@H]2CC(=O)[C@H](C)/C=C(\C)[C@@H](O)[C@@H](OC)C(=O)[C@H](C)C[C@H](C)/C=C/C=C/C=C(\C)[C@@H](OCCS(=O)(=O)CCS(=O)(=O)CCO)C[C@@H]3CC[C@@H](C)[C@@](O)(O3)C(=O)C(=O)N3CCCC[C@H]3C(=O)O2)CC[C@H]1O [Example I-65, (21E,23E,25E,26E,34R,35S,36R,37R,39S,41S,43S,44S,45R,46R,55R)-45,55-dihydroxy-43-[2-[2-(2-hydroxyethylsulfonyl)ethylsulfonyl]ethoxy]-44-[(1R)-2-[(1S,3R,4R)-4-hydroxy-3-methoxy-cyclohexyl]-1-methyl-ethyl]-46-methoxy-34,35,36,37,47,48-hexamethyl-70,71-dioxa-56-azatricyclohexatriaconta-21,23,25(47),26(48)-tetraene-49,50,51,52,53-pentone] | – | strong inhibition | – | – |
| – | CO[C@H]1C[C@@H]2CC[C@@H](C)[C@@](O)(O2)C(=O)C(=O)N2CCCC[C@H]2C(=O)O[C@H]([C@H](C)C[C@@H]2CC[C@@H](OCCO)[C@H](OC)C2)CC(=O)[C@H](C)/C=C(\C)[C@@H](O)[C@@H](OC)C(=O)[C@H](C)C[C@H](C)/C=C/C=C/C=C/1C [everolimus, reference compound] | – | reduction in pS6K1; also recorded: strong inhibition | inhibition of S6K1 phosphorylation (S^473) | – |

| Structure (SMILES) | IC50 [1] | mTORC1 selective @ 24 hrs [2] | inhibition of the mTORC1 pathway (pS6K1, Western blot) [3] | inhibition of mTORC2 (Akt phosphorylation, pAkt, Western blot) [4] | selectivity over mTORC2 as measured by the impact of pAKT ([2]; at 24 hours, depends on size of C-7 group) |
| --- | --- | --- | --- | --- | --- |
| CO[C@@H]1C[C@H](C[C@@H](C)[C@@H]2CC(=O)[C@H](C)/C=C(\C)[C@@H](O)[C@@H](OC)C(=O)[C@H](C)C[C@H](C)/C=C/C=C/C=C(\C)[C@@H](OCCCCCO)C[C@@H]3CC[C@@H](C)[C@@](O)(O3)C(=O)C(=O)N3CCCC[C@H]3C(=O)O2)CC[C@H]1O [Example I-35, (21E,23E,25E,26E,33R,34S,35R,36R,38S,40S,42S,43S,44R,45R,54R)-44,54-dihydroxy-43-[(1R)-2-[(1S,3R,4R)-4-hydroxy-3-methoxy-cyclohexyl]-1-methyl-ethyl]-42-(5-hydroxypentoxy)-45-methoxy-33,34,35,36,46,47-hexamethyl-65,66-dioxa-55-azatricyclohexatriaconta-21,23,25(46),26(47)-tetraene-48,49,50,51,52-pentone] | 0.1 to 1 nM | Yes | – | – | – |
